Earlier results, collected in patent US20230248672A1, “COMPOSITIONS COMPRISING GARDOS CHANNEL ANTAGONISTS AND THEIR USES” (ADIMABIO LLC, priority 2020, published 2023).
≈ marks a conversion by molar mass, not a printed value.

Tests used:
Gardos channel = Gardos channel (Homo sapiens, UniProt O15554)
[1] = tested on: sickle cell disease patients
[2] = rats, administered orally
[3] = not given; remark: listed apart in the source
[4] = not given; remark: listed apart in the source

block of potassium efflux through the Gardos channel (Gardos channel; red blood cells) | oral bioavailability [%] | time at which maximum concentration is attained [2] [h] | aqueous solubility [3] [µg/mL] | log P [4] | SMILES | inhibition of the Gardos channel (Gardos channel; normal and sickle erythrocytes) | rate of sickle cell painful crises ([1]; compared to placebo) | tolerability ([1]; dose of 10 mg, sickle cell disease patients) | hemoglobin ([1]; sickle cell disease patients) | markers of hemolysis ([1]; sickle cell disease patients)
– | – | – | – | – | Clc1ccccc1C(c1ccccc1)(c1ccccc1)n1ccnc1 [Clotrimazole] | specific, potent inhibitor | – | – | – | –
selectively blocks | 51 | 4 | 975 (≈ 3.02 mM) | 3.59 | NC(=O)C(c1ccccc1)(c1ccc(F)cc1)c1ccc(F)cc1 [senicapoc, 2,2-bis(4-fluorophenyl)-2-phenylacetamide] | – | no significant improvement | well tolerated | dose-dependent increase | decrease
